Read-outs that look alike come from different tables or passages of the source.
Target: T1, IRAK4 (Homo sapiens, UniProt Q9NWZ3)
T1 sequence (Q9NWZ3 1-460): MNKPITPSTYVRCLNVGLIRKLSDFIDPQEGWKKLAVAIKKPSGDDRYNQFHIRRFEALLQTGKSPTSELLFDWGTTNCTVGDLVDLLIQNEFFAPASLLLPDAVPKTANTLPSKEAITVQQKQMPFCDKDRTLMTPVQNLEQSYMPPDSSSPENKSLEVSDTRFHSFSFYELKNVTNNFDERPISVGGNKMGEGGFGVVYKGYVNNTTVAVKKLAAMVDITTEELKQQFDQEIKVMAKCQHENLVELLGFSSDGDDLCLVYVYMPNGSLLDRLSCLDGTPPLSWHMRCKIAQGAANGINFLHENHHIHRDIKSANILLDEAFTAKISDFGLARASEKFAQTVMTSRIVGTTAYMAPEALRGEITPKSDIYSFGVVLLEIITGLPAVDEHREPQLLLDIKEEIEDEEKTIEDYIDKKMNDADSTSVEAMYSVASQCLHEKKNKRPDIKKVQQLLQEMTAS
Experiment: Hibit fluorescence detection of proteolysis (IRAK4-HiBiT in HEK293T cells)
Assay type: cell-based
Parameters: host or cells: HEK293T (ATCC)
Details: for Dmax: HEK-293T
Procedure: Utilizing HiBiT tag technology, the HiBiT tag-containing sequence (Seq. ID. No. 1, Beijing Tsingke Biotech Co., Ltd.) was connected to the IRAK4 plasmid (Seq. ID. No. 2, Beijing Tsingke Biotech Co., Ltd.), and the plasmid was transfected into HEK293T cells (ATCC). […] The 6-well plate that was incubated overnight was taken out. After the plate was left at room temperature for 15 min, the obtained mixture was added dropwise to the 6-well plate. […] Culture was performed at 37°C and 5% CO2 for 24 h. The 384-well plate was taken out and equilibrated to room temperature. 40 µL of Nano-Glo® HiBiT Lytic Detection System (Promega N3030) was added to each well and incubated at room temperature for 15 min. […] Prism 9.3 software was used to perform fitting analysis for data, and non-linear fitting (non-liner inhibitor (Bell-shaped)) and four parameters (4 parameter) were used, and the parameters was as follows: Span1 = Plateau1−Dip [formula] Span2 = Plateau2−Dip [formula] Section1 = Span1/(1+10^(∧)((LogEC50_1−X)*nH1)) [formula] Section2 = Span2/(1+10^(∧)((X−LogEC50_2)*nH2)) [formula]
The equation was as follows: Y=Dip+Section1+Section2. • Seq. ID. No. 1 ([…]), other DNA, synthetic construct, sequence length 33; • Seq. ID. No. 2 [formula]

[1] = IRAK4-HiBiT, HEK293T cells, 24 h
[2] = IRAK4-HiBiT, HEK293T cells, 24 h, read-out: DC50

Row | Dmax (IRAK4-HiBiT, HEK293T cells, 24 h, read-out: Dmax) [%] | Structure (SMILES) | Dmax [%] | DC50 [1] [nM] | DC50 [2] [nM]
1 | – | Cn1c(=O)n(C2CCC(=O)NC2=O)c2cccc(CN3CCC4(CC3)CCN(C[C@H]3CC[C@H](n5cc(-n6cc(-c7cnn8ccc(N9CCOCC9)nc78)nn6)c(C(F)F)n5)CC3)CC4)c21 (some centres unmarked) [Example 6] | < 60 | < 0.5 | –
2 | – | Cn1c(=O)n(C2CCC(=O)NC2=O)c2cccc(C#CCOC3CCN(C[C@H]4CC[C@H](n5cc(-n6cc(-c7cnn8ccc(N9CCOCC9)nc78)nn6)c(C(F)F)n5)CC4)CC3)c21 (some centres unmarked) [Example 7] | 60 to 70 | < 0.5 | –
3 | – | Cn1c(=O)n(C2CCC(=O)NC2=O)c2cccc(CC3CCN(CC4CCN(C[C@H]5CC[C@H](n6cc(-n7cc(-c8cnn9ccc(N%10CCOCC%10)nc89)nn7)c(C(F)F)n6)CC5)CC4)CC3)c21 (some centres unmarked) [Example 8] | < 60 | > 5 | –
4 | – | Cn1c(=O)n(C2CCC(=O)NC2=O)c2cccc(NCC3CC4(CCN(C[C@H]5CC[C@H](n6cc(-n7cc(-c8cnn9ccc(N%10CCOCC%10)nc89)nn7)c(C(F)F)n6)CC5)CC4)C3)c21 (some centres unmarked) [Example 9] | < 60 | < 0.5 | –
5 | – | Cn1c(=O)n(C2CCC(=O)NC2=O)c2cccc(CNC3CC4(CCN(C[C@H]5CC[C@H](n6cc(-n7cc(-c8cnn9ccc(N%10CCOCC%10)nc89)nn7)c(C(F)F)n6)CC5)CC4)C3)c21 (some centres unmarked) [Example 10] | > 80 | < 0.5 | –
6 | – | Cn1c(=O)n(C2CCC(=O)NC2=O)c2cccc(C3CCN(C[C@H]4CC[C@H](n5cc(-n6cc(-c7cnn8ccc(N9CCOCC9)nc78)nn6)c(C(F)F)n5)CC4)CC3)c21 (some centres unmarked) [Example 11, 3-(4-(1-(((1r,4r)-4-(3-(difluoromethyl)-4-(4-(5-morpholinopyrazolo[1,5-a]pyrimidin-3-yl)-1H-1,2,3-triazol-1-yl)-1H-pyrazol-1-yl)cyclohexyl)methyl)piperidin-4-yl)-3-methyl-2-oxo-2,3-dihydro-1H-benzo[d]imidazol-1-yl)piperidine-2,6-dione] | > 80 | < 0.5 | –
7 | – | Cn1c(=O)n(C2CCC(=O)NC2=O)c2cccc(CN3CC4(C3)CN(C[C@H]3CC[C@H](n5cc(-n6cc(-c7cnn8ccc(N9CCOCC9)nc78)nn6)c(C(F)F)n5)CC3)C4)c21 (some centres unmarked) [Example 12, 3-(4-((6-(((1r,4r)-4-(3-(difluoromethyl)-4-(4-(5-morpholinopyrazolo[1,5-a]pyrimidin-3-yl)-1H -1,2,3-triazol-1-yl)-1H-pyrazol-1-yl)cyclohexyl)methyl)-2,6-diazaspiro[3.3]hept-2-yl)methyl)-3-methyl-2-oxo-2,3-dihydro-1H-benzo[d]imidazol-1-yl)piperidine-2,6-dione] | 70 to 80 | < 0.5 | –
8 | – | Cn1c(=O)n(C2CCC(=O)NC2=O)c2cccc(CN3CC4(CCN(C[C@H]5CC[C@H](n6cc(-n7cc(-c8cnn9ccc(N%10CCOCC%10)nc89)nn7)c(C(F)F)n6)CC5)CC4)C3)c21 (some centres unmarked) [Example 13, 3-(4-((7-(((1r,4r)-4-(3-(difluoromethyl)-4-(4-(5-morpholinopyrazolo[1,5-a]pyrimidin-3-yl)-1H -1,2,3-triazol-1-yl)-1H-pyrazol-1-yl)cyclohexyl)methyl)-2,7-diazaspiro[3.5]nonan-2-yl)methyl)-3-methyl-2-oxo-2,3-dihydro-1H-benzo[d]imidazol-1-yl)piperidine-2,6-dione] | > 80 | < 0.5 | –
9 | – | Cn1c(=O)n(C2CCC(=O)NC2=O)c2cccc(CN3CCC4(CC3)CN(C[C@H]3CC[C@H](n5cc(-n6cc(-c7cnn8ccc(N9CCOCC9)nc78)nn6)c(C(F)F)n5)CC3)C4)c21 (some centres unmarked) [Example 14] | < 60 | 0.5 to 1 | –
10 | – | CN(C[C@H]1CC[C@H](n2cc(-n3cc(-c4cnn5ccc(N6CCOCC6)nc45)nn3)c(C(F)F)n2)CC1)C1CCN(Cc2cccc3c2n(C)c(=O)n3C2CCC(=O)NC2=O)CC1 (some centres unmarked) [Example 15] | < 60 | 1 to 5 | –
11 | – | Cn1c(=O)n(C2CCC(=O)NC2=O)c2cccc(CCC(=O)N3CCC4(CC3)CN(C[C@H]3CC[C@H](n5cc(-n6cc(-c7cnn8ccc(N9CCOCC9)nc78)nn6)c(C(F)F)n5)CC3)C4)c21 (some centres unmarked) [Example 16] | 60 to 70 | < 0.5 | –
12 | – | Cn1c(=O)n(C2CCC(=O)NC2=O)c2cccc(C#CC3CCN(C[C@H]4CC[C@H](n5cc(-n6cc(-c7cnn8ccc(N9CCOCC9)nc78)nn6)c(C(F)F)n5)CC4)CC3)c21 (some centres unmarked) [Example 17] | 70 to 80 | 1 to 5 | –
13 | – | Cn1c(=O)n(C2CCC(=O)NC2=O)c2cccc(NC(=O)N3CCC4(CCN(C[C@H]5CC[C@H](n6cc(-n7cc(-c8cnn9ccc(N%10CCOCC%10)nc89)nn7)c(C(F)F)n6)CC5)C4)CC3)c21 (some centres unmarked) [Example 18, 2-(((1r,4r)-4-(3-(difluoromethyl)-4-(4-(5-morpholinopyrazolo [1,5-a]pyrimidin-3-yl)-1H-1,2,3-triazol-1-yl)-1H-pyrazol-1-yl)cyclohexyl)methyl)-N-(1-(2,6-dioxopiperidin-3-yl)-3-methyl-2-oxo-2,3-dihydro-1H-benzo[d]imidazol-4-yl)-2,8-diazaspiro[4.5]decan-8-carboxamide] | > 80 | – | > 5
14 | – | Cn1c(=O)n(C2CCC(=O)NC2=O)c2cccc(C#CC3(O)CN(C[C@H]4CC[C@H](n5cc(-n6cc(-c7ccc8cc(C(N)=O)cnn78)nn6)c(C(F)F)n5)CC4)C3)c21 (some centres unmarked) [Example 19] | 70 to 80 | 0.5 to 1 | –
15 | – | CN(C[C@H]1CC[C@H](n2cc(-n3cc(-c4cnn5ccc(N6CCOCC6)nc45)nn3)c(C(F)F)n2)CC1)C1CCC(Nc2cccc3c2n(C)c(=O)n3C2CCC(=O)NC2=O)CC1 (some centres unmarked) [Example 20, 3-(4-((4-((((1r,4r)-4-(3-(difluoromethyl)-4-(4-(5-morpholinopyrazolo[1,5-a]pyrimidin-3-yl)-1H-1,2,3-triazol-1-yl)-1H-pyrazol-1-yl)cyclohexyl)methyl)(methyl)amino)cyclohexyl)amino)-3-methyl-2-oxo-2,3-dihydro-1H-benzo[d]imidazol-1-yl)piperidine-2,6-dione] | > 80 | < 0.5 | –
16 | – | Cn1c(=O)n(C2CCC(=O)NC2=O)c2cccc(NC[C@H]3CC[C@@H](N(C)C[C@H]4CC[C@H](n5cc(-n6cc(-c7cnn8ccc(N9CCOCC9)nc78)nn6)c(C(F)F)n5)CC4)CC3)c21 (stereo partly drawn) [Example 21, 3-(4-((((1S,4s)-4-((((1r,4R)-4-(3-(difluoromethyl)-4-(4-(5-morpholinopyrazolo[1,5-a]pyrimidin-3-yl)-1H-1,2,3-triazol-1-yl)-1H-pyrazol-1-yl)cyclohexyl)methyl)(methyl)amino)cyclohexyl)methyl)amino)-3-methyl-2-oxo-2,3-dihydro-1H-benzo[d]imidazol-1-yl)piperidine-2,6-dione] | < 60 | < 0.5 | –
17 | < 60 | Cc1c(/C=C2\C(=O)Nc3ccc(S(=O)(=O)Nc4ccc(F)cc4)cc32)[nH]c2cc(N3CCN(CC4CCN(c5ccc(C(=O)NC6CCC(=O)NC6=O)c(F)c5)CC4)CC3)ccc12 (centres unmarked) [Example 22, N-(2,6-dioxopiperidin-3-yl)-2-fluoro-4-(4-{[4-(2-{[(3Z)-5-[(4-fluorophenyl)sulfamoyl]-2-oxo-2,3-dihydro-1H-indol-3-ylidene]methyl}-3-methyl-1H-indol-6-yl)piperazin-1-yl]methyl}piperidin-1-yl)benzamide] | – | – | > 5
18 | – | CN(C[C@H]1CC[C@H](n2cc(-n3cc(-c4cnn5ccc(N6CCOCC6)nc45)nn3)c(C(F)F)n2)CC1)C1CCC2(CC1)CC(Nc1cccc3c1n(C)c(=O)n3C1CCC(=O)NC1=O)C2 (some centres unmarked) [Example 23, 3-(4-((7-((((1r,4r)-4-(3-(difluoromethyl)-4-(4-(5-morpholinopyrazolo[1,5-a]pyrimidin-3-yl)-1H-1,2,3-triazol-1-yl)-1H-pyrazol-1-yl)cyclohexyl)methyl)(methyl)amino)spiro[3.5]nonan-2-yl)amino)-3-methyl-2-oxo-2,3-dihydro-1H-benzo[d]imidazol-1-yl)piperidine-2,6-dione] | > 80 | < 0.5 | –
19 | – | Cn1c(=O)n(C2CCC(=O)NC2=O)c2cccc(NC[C@H]3CC[C@H](N(C)C[C@H]4CC[C@H](n5cc(-n6cc(-c7cnn8ccc(N9CCOCC9)nc78)nn6)c(C(F)F)n5)CC4)CC3)c21 (stereo partly drawn) [Example 24, 3-(4-((((1R,4r)-4-((((1r,4R)-4-(3-(difluoromethyl)-4-(4-(5-morpholinopyrazolo[1,5-a]pyrimidin-3-yl)-1H-1,2,3-triazol-1-yl)-1H-pyrazol-1-yl)cyclohexyl)methyl)(methyl)amino)cyclohexyl)methyl)amino)-3-methyl-2-oxo-2,3-dihydro-1H-benzo[d]imidazol-1-yl)piperidine-2,6-dione] | < 60 | < 0.5 | –

Source: patent EP4759807A1, “PROTEOLYSIS TARGETING CHIMERA COMPOUND FOR DEGRADING IRAK4 AND USE THEREOF” (Shenzhen Zhongge Biological Technology Co., Ltd., priority 2023, dated 2025)
